For orientation: EC50 means the concentration giving half of the maximal effect. As a reminder, the Tmax is the time at which the peak concentration occurs. The Cmax is the peak of the concentration-time curve. What is called AUC(0-t) is the area under the concentration-time curve up to a stated or last time point. As usually defined, the CL/F is clearance divided by bioavailability, as obtained after extravascular dosing.

The results in this text go back to patent US8658650B2, “Substituted 1,1,3,1-tetraoxidobenzo[D][1,3,2]dithiazoles as MGLUR4 allosteric potentiators, compositions, and methods of treating neurological dysfunction” (Vanderbilt University, priority 2009, dated 2014).

Like-named read-outs stand apart in the source and are kept apart here.

In one data set the target is mGluR4 (UniProt Q14833). Nature of the data set: mGluR4 potentiation assay (activity table; fluorescence plate reader, compound then EC20 agonist). The format is cell-based. The note with it: for % GluMax: maximum extent of potentiation; for EC50: potentiation of mGluR4, species of receptor not given. How it is done:
The disclosed compounds and compositions can be evaluated for their ability to act as a potentiator of metabotropic glutamate receptor activity, in particular mGluR4 activity, by any suitable known methodology known in the art. For example, Chinese Hamster Ovary (CHO) cells transfected with human mGluR4 or HEK cells co-transfected with rat mGluR4 and the G-protein regulated Inwardly Rectifying Potassium channel (GIRK) were plated in clear bottom assay plates for assay in a Hamamatsu FDSS Fluorometric Plate Reader. The cells were loaded with either a Ca2+-sensitive fluorescent dye Fluo-4 or the thallium responsive dye BTC, AM and the plates were washed and placed into a suitablekinetic plate reader. For human mGluR4 assays, a fluorescence baseline was established for 3-5 seconds, the disclosed compounds were then added to the cells, and the response in cells was measured. Approximately two and a half minutes later, a concentration of mGluR4 orthosteric agonist (e.g. glutamate or L-AP4) eliciting approximately 20% (EC20) of the maximal agonist response was added to the cells, and the response was measured. Two minutes later, a concentration of mGluR4 agonist (e.g. glutamate or L-AP4) eliciting 80% (EC80) of the maximal agonist response was added to the cells, and the response was measured. For rat mGluR4/GIRK experiments, a baseline was established for approximately five seconds, disclosed compounds were added, and either an EC20 or EC80 concentration of agonist was added approximately two and one half minutes later. Potentiation of the agonist response of mGluR4 by the disclosed compounds was observed as an increase in response to the EC20 concentration of agonist in the presence of compound compared to the response to agonist in the absence of compound. Similarly, antagonism of the agonist response of mGluR4 by the disclosed compounds was observed as a decrease in response to the EC80 concentration of agonist in the presence of compound compared to the response to agonist in the absence of compound.
The above described assay operated in two modes. In the first mode, a range of concentrations of the disclosed compounds are added to cells, followed by a single fixed concentration of agonist. If the compound acts as a potentiatior, an EC50 value for potentiation and a maximum extent of potentiation by the compound at this concentration of agonist is determined by non-linear curve fitting. If the compound acts as a noncompetitive antagonist, an IC50 value is determined by non-linear curve fitting. In the second mode, several fixed concentrations of the disclosed compounds are added to various wells on a plate, followed by a range in concentrations of agonist for each concentration of disclosed compound. The EC50 values for the agonist at each concentration of compound are determined by non-linear curve fitting. A decrease in the EC50 value of the agonist with increasing concentrations of the sample compound (a leftward shift of the agonist concentration-response curve) is an indication of the degree of mGluR4 potentiation at a given concentration of the sample compound. A decrease in the maximal response of the agonist with increasing concentrations of the sample compounds, with or without a rightward shift in agonist potency, is an indication of the degree of noncompetitive antagonism at mGluR4. The second mode also indicates whether the sample compounds also affect the maximum response to mGluR4 to agonists.
These compounds are positive allosteric modulators (potentiators) of human and rat mGluR4 and were selective for mGluR4 compared to the other seven subtypes of metabotropic glutamate receptors.

The nature of data set [1]: intraperitoneal pharmacokinetics in male SD rats (plasma and brain). Format: in vivo, rat. Set-up: AUC(0-8) Brain: unit not given here. The note with it: 10 mg/kg ip; for AUC(0-8) Brain / AUC(0-t): 0-8 h; for Log BB: brain/plasma. As to the method:
FIG. 2 is a graph showing intraperitoneal pharmacokinetics of a compound of the present invention in male SD rats (N=3); Formulation: 10% tween 80 microsuspension; Dose: 10 mg/kg; Time points: 0.5 h, 1 h, 2 h, 4 h & 8 h; data are summarized in Table 1 and Table 2.
FIG. 3 is a graph showing intraperitoneal pharmacokinetics of a compound of the present invention in male SD rats (˜300 g); Dose:10 mg/kg, ip; Time points: 0.5 h, 1 h & 8 h (n=3); data are summarized in Table 1 and Table 2.
FIG. 4 is a graph showing intraperitoneal pharmacokinetics of a compound of the present invention in male SD rats (˜300 g); Dose:10 mg/kg, ip; Time points: 0.5 h, 1 h & 8 h (n=3); data are summarized in Table 1 and Table 2.
Additionally, certain exemplary disclosed compounds were evaluated for pharmacokinetic efficacy.

The mark [2] stands for this setting: rat, brain, read-out: Elimination T1/2 Brain (converted).
The mark [3] stands for this setting: rat, brain, read-out: Tmax Brain.
Where [4] appears, read: rat, plasma, read-out: Elimination T1/2 Plasma (converted).
Setting [5] is: rat, plasma, read-out: Tmax Plasma.

On to `O=C(Nc1ccc(N2S(=O)(=O)c3ccccc3S2(=O)=O)cc1)c1ccccc1` [Example 1, N-(4-(1,1,3,3-tetraoxidobenzo[d][1,3,2]dithiazol-2-yl)phenyl)benzamide], for which, on mGluR4, the “% GluMax” value turned out to be 146% and the EC50 is 203 nM.
In the case of `O=C(Nc1ccc(N2S(=O)(=O)c3ccccc3S2(=O)=O)cc1)c1ccco1` [Example 2, N-(4-(1,1,3,3-tetraoxidobenzo[d][1,3,2]dithiazol-2-yl)phenyl)furan-2-carboxamide], at mGluR4, the “% GluMax” value was determined as 284% and the EC50 was determined as 50 nM.
As to `O=C(Nc1ccc(N2S(=O)(=O)c3ccccc3S2(=O)=O)cc1)C1CCCCC1` [Example 3, N-(4-(1,1,3,3-tetraoxidobenzo[d][1,3,2]dithiazol-2-yl)phenyl)cyclohexanecarboxamide], on mGluR4, the “% GluMax” value stood at 96% and the EC50 amounted to 128 nM.
For `O=C(Nc1ccc(N2S(=O)(=O)c3ccccc3S2(=O)=O)cc1)c1ccccn1` [Example 4, N-(4-(1,1,3,3-tetraoxidobenzo[d][1,3,2]dithiazol-2-yl)phenyl)picolinamide] the same measures were 254% and 38.1 nM.
For `O=C(Nc1ccc(N2S(=O)(=O)c3ccccc3S2(=O)=O)cc1)c1cccc(F)n1` [Example 5, 6-Fluoro-N-(4-(1,1,3,3-tetraoxidobenzo[d][1,3,2]dithiazol-2-yl)phenyl)picolinamide], on mGluR4, the “% GluMax” value is reported as 198% and the EC50 turned out to be 179 nM.
Turning to `O=C(Nc1ccc(N2S(=O)(=O)c3ccccc3S2(=O)=O)cc1)c1ccncn1` [Example 6, N-(4-(1,1,3,3-tetraoxidobenzo[d][1,3,2]dithiazol-2-yl)phenyl)pyrimidine-4-carboxamide], at mGluR4, the “% GluMax” value worked out at 247% and the EC50 came to 286 nM.
Take `O=C(Nc1ccc(N2S(=O)(=O)c3ccccc3S2(=O)=O)cc1)c1nccs1` [Example 7, N-(4-(1,1,3,3-tetraoxidobenzo[d][1,3,2]dithiazol-2-yl)phenyl)thiazole-2-carboxamide]: on mGluR4, the “% GluMax” value stood at 216% and the EC50 worked out at 142 nM.
As for `O=C(Nc1ccc(N2S(=O)(=O)c3ccccc3S2(=O)=O)cc1)c1ncccc1F` [Example 8, 3-Fluoro-N-(4-(1,1,3,3-tetraoxidobenzo[d][1,3,2]dithiazol-2-yl)phenyl)picolinamide], on mGluR4, the “% GluMax” value turned out to be 69% and the 50% effective concentration (EC50) worked out at 49.6 nM.
On to `O=C(Nc1ccc(N2S(=O)(=O)c3ccccc3S2(=O)=O)cc1)C1CCCCO1` (centres unmarked) [Example 9, N-(4-(1,1,3,3-tetraoxidobenzo[d][1,3,2]dithiazol-2-yl)phenyl)tetrahydro-2H-pyran-2-carboxamide], for which, at mGluR4, the “% GluMax” value is listed as 166% and the half-maximal effective concentration (EC50) stood at 914 nM.
For `O=C(Nc1ccc(N2S(=O)(=O)c3ccccc3S2(=O)=O)cc1)c1cscn1` [Example 10, N-(4-(1,1,3,3-tetraoxidobenzo[d][1,3,2]dithiazol-2-yl)phenyl)thiazole-4-carboxamide], at mGluR4, the “% GluMax” value is 231% and the EC50 turned out to be 68.8 nM.
Regarding `O=C(Nc1ccc(N2S(=O)(=O)c3ccccc3S2(=O)=O)cc1)c1ncc(F)cc1F` [Example 11, 3,5-Difluoro-N-(4-(1,1,3,3-tetraoxidobenzo[d][1,3,2]dithiazol-2-yl)phenyl)picolinamide], on mGluR4, the “% GluMax” value is reported as 195% and the concentration giving a half-maximal response (EC50) stood at 1650 nM.
Take `O=C(Nc1ccc(N2S(=O)(=O)c3ccccc3S2(=O)=O)cc1F)c1ccco1` [Example 12, N-(2-fluoro-4-(1,1,3,3-tetraoxidobenzo[d][1,3,2]dithiazol-2-yl)phenyl)furan-2-carboxamide]: on mGluR4, the “% GluMax” value was determined as 125% and the EC50 came out at 9130 nM.
In the case of `O=C(Nc1ccc(N2S(=O)(=O)c3ccccc3S2(=O)=O)cc1F)c1ccccn1` [Example 13, N-(2-fluoro-4-(1,1,3,3-tetraoxidobenzo[d][1,3,2]dithiazol-2-yl)phenyl)picolinamide], at mGluR4, the “% GluMax” value is reported as 62% and the concentration for a half-maximal effect (EC50) came to 739 nM.
Regarding `O=C(Nc1ccccn1)c1ccc(N2S(=O)(=O)c3ccccc3S2(=O)=O)cc1` [Example 14, N-(pyridin-2-yl)-4-(1,1,3,3-tetraoxidobenzo[d][1,3,2]dithiazol-2-yl)benzamide], on mGluR4, the “% GluMax” value is listed as 39% and the concentration giving a half-maximal response (EC50) is 113 nM.
In the case of `O=C(Nc1ccc(F)cn1)c1ccc(N2S(=O)(=O)c3ccccc3S2(=O)=O)cc1` [Example 15, N-(5-fluoropyridin-2-yl)-4-(1,1,3,3-tetraoxidobenzo[d][1,3,2]dithiazol-2-yl)benzamide], on mGluR4, the “% GluMax” value is recorded as 84% and the EC50 was determined as 272 nM.
Take `O=S1(=O)c2ccccc2S(=O)(=O)N1c1ccc(NCc2ccccn2)cc1` [Example 16, 2-(4-((pyridine-2-ylmethyl)amino)phenyl)benzo[d][1,3,2]dithiazole-1,1,3,3-tetraoxide]: on mGluR4, the “% GluMax” value came out at 161% and the EC50 was determined as 2140 nM.
The matching figures for `O=S1(=O)c2ccccc2S(=O)(=O)N1c1ccc(NC2(c3ccccn3)CC2)cc1` [Example 17]: 165% and 134 nM.
Take `O=S1(=O)c2ccccc2S(=O)(=O)N1c1ccc(Nc2ccccn2)nc1` [Example 18, 2-(6-(pyridin-2-ylamino)pyridin-3-yl)benzo[d][1,3,2]dithiazole 1,1,3,3-tetraoxide]: at mGluR4, the “% GluMax” value came to 73% and the EC50 stood at 5450 nM.
`O=C(Nc1ccc(N2S(=O)(=O)c3ccccc3S2(=O)=O)cc1)C1CCCCC1` [drawing 138] yielded a V/F in data set [1] of 6.7 L. For the same compound, in data set [1] (brain), the “Cmax Brain” value is 983.43 ± 188.76 ng/mL or g and the “AUC(0-8) Brain” value is given as 6295.60 ± 876.30. Further, in data set [1] (setting [2]), the half-life was 12.2 h. Also, the time to peak (Tmax) in data set [1] (setting [3]) is 0.5 h. In data set [1] (rat), this compound came in with a Log BB of 0.26. In data set [1] (rat, plasma), this compound gave a Cmax of 1930 ± 845 ng/mL, an AUC(0-t) of 3400 ± 2990 ng·h/mL and a CL/F of 46.7 mL/min/kg. Also, the half-life in data set [1] (setting [4]) was 1.67 h. In addition, in data set [1] (setting [5]), the time to peak (Tmax) is 0.5 h.
As to `O=C(Nc1ccc(N2S(=O)(=O)c3ccccc3S2(=O)=O)cc1)c1ccccc1` [drawing 139], in data set [1], the V/F is listed as 5.2 L and the “Log BB” value is −0.9. In data set [1] (brain), the “Cmax Brain” value is 775.51 ± 90.00 ng/mL or g and the “AUC(0-8) Brain” value was 405.32 ± 98.82. In addition, the Tmax in data set [1] (setting [3]) was 1 h. Further, in data set [1] (rat, plasma), the concentration peaked (Cmax) at 1470 ± 41 ng/mL, the AUC(0-t) came to 3280 ± 244 ng·h/mL and the apparent clearance (CL/F) worked out at 51.2 mL/min/kg. Besides, the half-life in data set [1] (setting [4]) is 1.21 h. Further, the Tmax in data set [1] (setting [5]) is 1 h.
`O=C(Nc1ccc(N2S(=O)(=O)c3ccccc3S2(=O)=O)cc1)c1ccco1` [drawing 140]: in data set [1], the V/F is given as 1.49 L and the “Log BB” value is reported as −0.19. In addition, in data set [1] (brain), the “Cmax Brain” value is listed as 2842.81 ± 544.93 ng/mL or g and the “AUC(0-8) Brain” value came to 12937.04 ± 2079.74. For the same compound, in data set [1] (setting [2]), the half-life is 3.79 h. The Tmax in data set [1] (setting [3]) was determined as 1 h. In data set [1] (rat, plasma), this compound registered a Cmax of 5690 ± 1360 ng/mL, an exposure AUC(0-t) of 20500 ± 5180 ng·h/mL and a CL/F of 7.16 mL/min/kg. Besides, the half-life in data set [1] (setting [4]) is 2.39 h. For the same compound, in data set [1] (setting [5]), the time of peak concentration (Tmax) was found to be 1 h.
